From patent publication US7410979B2, “Synergistically effective combinations of dihaloacetamide compounds and interferon or ribavirin against HCV infections” (Rigel Pharmaceuticals, Inc., priority 2003, dated 2008)

System: HCV NS3
Assay: Quantitative Western blot of HCV NS3 in replicon cells
Assay type: cell-based
Procedure: Certain exemplary synergistic combinations of the invention can also be tested for their ability to inhibit HCV replication using a quantitative Western blot analysis with antibodies specific for the HCV nonstructural protein NS3. Actively dividing 9-13 replicon cells can be seeded into 6-well plates at a density of 1×10^5 cells/well in a volume of 2 ml/well and can be incubated at 37° C. and 5% CO2 for 24 hours. Various concentrations of test compounds (in a volume of 10 ul) were can be added to the wells and the cells can be incubated for another 48 hours. Protein samples can be prepared from the cultured cells, then could be resolved on a SDS-PAGE gel and then could be transferred to a nitrocellulose membrane. The membrane can be blocked with 5% non-fat milk in PBS for 1 hour at room temperature. Primary antibody (anti NS3 antibody; Rigel Pharmaceuticals, South San Francisco, Calif.) incubation can be performed for 1 hour at room temperature, after which the membrane can be washed 3 times (for 15 min per time) with PBST (PBS plus 0.1% Tween 20). Horseradish peroxidase conjugated secondary antibody incubation can be performed for 1 hour at room temperature and the membrane can be washed 3 times (for 15 min per time) with PBST. The membrane can then be soaked in substrate solution (Pierce) and can then be exposed to a film or quantified using an imager. In this assay, the amount of test synergetic combination that yields a 50% reduction in the amount of NS3 protein translated as compared to a control sample (IC50) can be determined.

Compound | effectiveness against HCV replication, as indicated by the reduction of HCV NS3 in replicon cells (FIG. 3(a), interferon-α alone at elevated concentrations) | HCV NS3 protein level (FIG. 2, 100 nM of compound I and 20 μm ribavirin) | synergy between compound I and ribavirin (FIG. 2, ribavirin at constant concentration, concentration of compound I varied) | synergistic effects on HCV replication (FIG. 3, compound I, interferon-α and ribavirin) | HCV NS3 (FIGS. 3(c) and 3(d), increasing concentrations of compound I in combination with interferon-α and ribavirin)
interferon-α | effective | – | – | – | –
O=C(Nc1ccnc(-c2cc(-c3c(Cl)cccc3Cl)no2)c1)C(Cl)Cl [compound I] | – | eliminated | synergy | synergistic effects | effectively eliminates
